Our source for the Ki values is ChEMBL document CHEMBL1126529, “A diazine heterocycle replaces a six-membered hydrogen-bonded array in the active site of scytalone dehydratase” (Bioorg Med Chem Lett, 1993).

Assay [1] deals with T1, Scytalone dehydratase (Magnaporthe oryzae (strain 70-15 / FGSC 8958) (Rice blast fungus)(Pyricularia oryzae), UniProt P56221).
T1 sequence (P56221 whole entry): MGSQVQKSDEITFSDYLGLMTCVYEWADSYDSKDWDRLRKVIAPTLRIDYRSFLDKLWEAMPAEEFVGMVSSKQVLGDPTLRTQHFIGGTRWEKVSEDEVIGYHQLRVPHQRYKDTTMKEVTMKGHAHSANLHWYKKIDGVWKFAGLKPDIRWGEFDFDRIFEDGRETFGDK
The assay is described as follows: The inhibitory activity (Ki) of the protonated compound was measured against scytalone dehydratase at pH 7.0. More on the design: species or system Pyricularia grisea.

The target in assay [2] is T1, Scytalone dehydratase. The assay is described as follows: The inhibitory activity (Ki) of the deprotonated compound was measured against scytalone dehydratase at pH 9.8. More on the design: species or system Pyricularia grisea.

Consider `c1ccc(CCCNc2ncnc3ccccc23)cc1`, for which the Ki on Scytalone dehydratase [1] came to 1800 nM; on Scytalone dehydratase [2] it was 19 nM.
The like results for `O=C(NCCCc1ccccc1)c1ccccc1O` were, in that order, 7.3 nM and 230 nM.
The like results for `c1ccc(CCCNc2nccc3ccccc23)cc1` were, in that order, 6700 nM and 2300 nM.
The like results for `c1ccc(CCCNc2ccnc3ccccc23)cc1` were, in that order, 88000 nM and 45000 nM.
